This assay concerns Pyrrhocoris apterus. Nature of the assay: Juvenilizing effect assessed as inhibition of metamorphosis per individual in red firebug by drinking assay. The assay is classed as functional.

SMILES strings stand for the structures. Calls of active or inactive are those of the source. The calls are words filed in the database; no cut-off is given here.

Turning to `CCOC(=O)/C=C(/C)COc1ccc(C[C@H]2CCCC[C@@H]2O[C@@H]2O[C@H](CO)[C@@H](O)[C@H](O)[C@H]2O)cc1` (stereo in doubt; Z-14b), the result was inactive.
In the case of `CCOC(=O)/C=C(\C)COc1ccc(C[C@H]2CCCC[C@@H]2O)cc1`, the ID50 worked out at 0.32 µg.
`CCOC(=O)/C=C(/C)COc1ccc(C[C@H]2CCCC[C@@H]2O)cc1` (stereo in doubt; Z-2a): the outcome was inactive.
Take `CCOC(=O)/C=C(\C)COc1ccc(C[C@H]2CCCC[C@@H]2O[C@@H]2O[C@H](CO)[C@@H](O)[C@H](O)[C@H]2O)cc1`: the ID50 is 1.3 µg.
`CCOC(=O)/C=C(\C)COc1ccc(C[C@@H]2CCCC[C@@H]2O[C@@H]2O[C@H](CO)[C@H](O)[C@H](O)[C@H]2O)cc1`: the ID50 was determined as 0.11 µg.
Same read-out and setting: then `CCOC(=O)/C=C(/C)COc1ccc(C[C@H]2CCCC[C@@H]2O[C@@H]2O[C@H](CO)[C@H](O)[C@H](O)[C@H]2O)cc1`, with 3 µg.
With `CCOC(=O)/C=C(/C)COc1ccc(C[C@H]2CCCC[C@@H]2O)cc1` (stereo in doubt; Z-2b), the outcome was inactive.
With `CCOC(=O)/C=C(/C)COc1ccc(C[C@@H]2CCCC[C@@H]2O[C@@H]2O[C@H](CO)[C@H](O)[C@H](O)[C@H]2O)cc1`, the ID50 turned out to be 2.3 µg.
The same measure, in the same setting: as for `CCOC(=O)/C=C(\C)COc1ccc(C[C@@H]2CCCC[C@@H]2O)cc1`, the figure is 0.05 µg; as for `CCOC(=O)/C=C(/C)COc1ccc(C[C@@H]2CCCC[C@@H]2O[C@@H]2O[C@H](CO)[C@@H](O)[C@H](O)[C@H]2O)cc1`, 1.1 µg; as for `CCOC(=O)/C=C(/C)COc1ccc(C[C@@H]2CCCC[C@@H]2O)cc1`, 18 µg.
On to `CCOC(=O)/C=C(/C)COc1ccc(C[C@H]2CCCC[C@@H]2O[C@@H]2O[C@H](CO)[C@@H](O)[C@H](O)[C@H]2O)cc1` (stereo in doubt; Z-14a), for which the result was inactive.
Turning to `CCOC(=O)/C=C(\C)COc1ccc(C[C@@H]2CCCC[C@@H]2O[C@@H]2O[C@H](CO)[C@@H](O)[C@H](O)[C@H]2O)cc1`, the ID50 stood at 0.0021 µg.
On to `CCOC(=O)/C=C(\C)COc1ccc(C[C@H]2CCCC[C@@H]2O[C@@H]2O[C@H](CO)[C@H](O)[C@H](O)[C@H]2O)cc1`, for which the ID50 worked out at 1.9 µg.

The values are drawn from ChEMBL document CHEMBL1139830, “Glycosidic juvenogens: derivatives bearing alpha,beta-unsaturated ester functionalities” (2007).
